Data taken from patent US10357491B2, “Method of treating a brain tumor” (BeyondSpring Pharmaceuticals, Inc., priority 2015, dated 2019).

What was measured:
[1] = test system: PDGF-induced gliomas that expressed G12D mutant KRAS; assay: Survival of mice with PDGF-induced gliomas expressing G12D mutant KRAS treated with Plinabulin plus TMZ plus radiation; format: in vivo; conditions: Plinabulin 7.5 mg/kg i.p. twice a week for 10 weeks plus TMZ plus radiation 10gy x1; p=0.0149
Procedure: Mice with PDGF-induced gliomas that expressed G12D mutant KRAS were prepared using the procedures according to Example 1 and used in this experiment. 4-6 week old nestin-tv-a/ink4a-arf−/− mice were anesthetized with Isoflurane and injected with Df-1 cells transfected RCAS-PDGF-B-HA, RCAS-KRAS. Mice were injected with one microliter of a 1:1 mixture of 2×10^5 RCAS-PDGF-B-HA/RCAS-KRAS using a stereotactic frame via a 26-gauge needle attached to a Hamilton syringe. Cells were injected into the right frontal cortex, coordinates bregma 1.75 mm, Lat −0.5 mm, and a depth of 2 mm.
The mice were entered into two study groups. One group was treated with the combination of temozolomide (TMZ), Radiation and Plinabulin: radiation was given at 10gy×1, TMZ and Plinabulin 7.5 mg/kg in Plinabulin diluent was administered intraperitoneally twice a week on Monday and Thursday for 10 weeks. The other group, the control group, was treated with the combination of TMZ and radiation: radiation was given at 10gy×1, TMZ was administered intraperitoneally twice a week on Monday and Thursday for 10 weeks. the mice were monitored for lethargy, hunched posture, appetite loss, outward signs of tumor growth, agitation, weight-loss and overall failure to thrive. […]

[2] = test system: PDGF-induced gliomas that expressed G12D mutant KRAS; assay: Survival of mice with PDGF-induced gliomas expressing G12D mutant KRAS treated with Plinabulin; format: in vivo; conditions: Plinabulin 7.5 mg/kg i.p. twice per week for 10 weeks; control: Plinabulin diluent only; p=0.001
Source text: Mice with PDGF-induced gliomas using RCAS/tv-a were generated. The mice were transgenic for expression of the RCAS receptor (tv-a) from the nestin promoter and having a background of ink4a/arf−/− and lox-stop-lox luciferase, were infected with RCAS-PDGF, or the combination of RCAS-PDGF and RCAS-KRAS that expressed G12D mutant KRAS. The resultant tumors occurred within the first 4-5 weeks in this background for PDGF alone, and about a week shorter for the tumors arising from the combination of PDGF and RCAS. The tumors had the histological characteristics of GBM and were identified by symptoms of lethargy and poor grooming, MRI scans using a T2 weighted sequence, or bioluminescence imaging with an IVIS system. For radiation therapy, mice were treated with 10Gy per day cranially for a single dose.
Plinabulin was tested on mice with PDGF-induced gliomas that expressed G12D mutant KRAS. 4-6 week old nestin-tv-a/ink4a-arf−/− mice were anesthetized with Isoflurane and injected with Df-1 cells transfected RCAS-PDGF-B-HA, RCAS-KRAS. Mice were injected with one microliter of a 1:1 mixture of 2×10^5 RCAS-PDGF-B-HA/RCAS-KRAS using a stereotactic frame via a 26-gauge needle attached to a Hamilton syringe. […] The mice were monitored for lethargy, hunched posture, appetite loss, outward signs of tumor growth, agitation, weight-loss and overall failure to thrive. […]

CC(C)(C)c1[nH]cnc1/C=c1\[nH]c(=O)/c(=C/c2ccccc2)[nH]c1=O [Plinabulin, (3Z,6Z)-3-Benzylidene-6-{[5-(2-methyl-2-propanyl)-1H-imidazol-4-yl]methylene}-2,5-piperazinedione]
survival rate vs control group that received TMZ plus radiation (FIG. 4) [1]: significantly better survival rate | survival rate vs control group (FIG. 3) [2]: significantly better survival rate
